# Assay results: PubChem BioAssay (NCI)
#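 Here, GI50 denotes the concentration required for 50% inhibition of growth. TGI marks complete inhibition of growth.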
# Experiments:
# Test in all cases: growth of human tumour cells (NCI), 384-well format
# OVCAR-4 ovarian = test system: OVCAR-4 ovarian
# CCRF-CEM leukemia = test system: CCRF-CEM leukemia
# HCT-15 colon = test system: HCT-15 colon
# MDA-MB-435 melanoma = test system: MDA-MB-435 melanoma
# HCT-116 colon = test system: HCT-116 colon
# A498 renal = test system: A498 renal
# SNB-19 CNS = test system: SNB-19 CNS
# UO-31 renal = test system: UO-31 renal
# IGROV1 ovarian = test system: IGROV1 ovarian
# MOLT-4 leukemia = test system: MOLT-4 leukemia
# HT29 colon = test system: HT29 colon
# UACC-257 melanoma = test system: UACC-257 melanoma
# RXF 393 renal = test system: RXF 393 renal
structure (smiles),measurement,setting,value
Cc1ccc2c(N)c(C(=O)N[C@H]3CCc4cc(N5CC6CCC(C5)N6)ccc4C3)sc2n1,GI50,OVCAR-4 ovarian,127 nM
same,TGI,OVCAR-4 ovarian,460 nM
same,GI50,CCRF-CEM leukemia,42.3 nM
same,TGI,CCRF-CEM leukemia,133 nM
same,GI50,HCT-15 colon,260 nM
same,TGI,HCT-15 colon,1030 nM
same,GI50,MDA-MB-435 melanoma,207 nM
same,TGI,MDA-MB-435 melanoma,804 nM
same,GI50,HCT-116 colon,155 nM
same,TGI,HCT-116 colon,925 nM
same,GI50,A498 renal,164 nM
same,TGI,A498 renal,892 nM
same,GI50,SNB-19 CNS,293 nM
same,TGI,SNB-19 CNS,2140 nM
same,GI50,UO-31 renal,349 nM
same,TGI,UO-31 renal,1270 nM
same,GI50,IGROV1 ovarian,300 nM
same,TGI,IGROV1 ovarian,1120 nM
same,GI50,MOLT-4 leukemia,35.1 nM
same,TGI,MOLT-4 leukemia,105 nM
same,GI50,HT29 colon,386 nM
same,TGI,HT29 colon,4350 nM
same,GI50,UACC-257 melanoma,194 nM
same,TGI,UACC-257 melanoma,775 nM
same,GI50,RXF 393 renal,116 nM
same,TGI,RXF 393 renal,406 nM
